This is an account of results in US4822775A, “Phenyl substituted dipeptide amides” (priority 1986, dated 1989).

Read-outs that look alike come from different tables or passages of the source.

For one test, the system named is mice. In words: Writhing assay (phenylbenzoquinone-induced writhing). Format: in vivo, mouse. The settings on record: 30 min before phenylbenzoquinone i.p.; for Writhing Mouse Oral: screening dose 10 mg/kg p.o. (intragastric); for Writhing Mouse Subc.: screening dose 10 mg/kg s.c. As for the experimental part: Writhing assay. Male Charles River albino mice (CD-1/HAM/1LR) weighing between 20 and 30 grams were used. Thirty minutes after subcutaneous or intragastric administration of the test compound (0.1 mg/10 gram body weight), 0.025% (w/v) phenylbenzoquinone was injected intraperitoneally (0.1 ml/10 gram body weight). Five minutes later, each mouse was placed in a large glass beaker and the number of writhes that occurred in the subsequent ten minutes is counted. A writhe consisted of dorsoflexion of the back, extension of the hindlimbs, and strong contraction of the abdominal musculature. The test compounds was considered to have produced analgesia in a mouse if the number of writhes elicited by phenylbenzoquinone was equal to or less than one-half the median number of writhes recorded for the saline-treated group that day. The results were expressed as the number of mice (out of a possible ten) in which the test compound produced analgesia.
(In general: An intraperitoneal irritant provokes the stretching counted in writhing tests.)

The target in test [1] is opiate receptors isolated from rat brain. Format: binding. The settings on record: for IC50: read-out: Opiate Binding, IC50.
A further test relates to opiate activity. The conditions noted are these: cited from earlier work.
The next test has as its system rat. The conditions noted are these: injected directly into the brain of the rat; cited from earlier work.
Where [2] appears, read: 1 nM 3H-Naloxone, rat brain receptor membranes, standard screening dose 10^-5 molar (words such as Inactive refer to it).
The mark [3] stands for this setting: 1 nM 3H-Naloxone, rat brain receptor membranes, standard screening dose 10^-5 molar (words such as Inactive refer to it), monohydrochloride.

Turning to “2,6-dimethyl-L-tyrosyl-N-[2-(2-thienyl)ethyl]-D-alaninamide, monohydrochloride [Example 39]”, in the test on mice, the “Writhing Mouse Oral” value was “Inactive” and the “Writhing Mouse Subc.” value is recorded as “Inactive”.

Usually IC50 stands for the midpoint of a concentration-inhibition curve. As for “2,6-dimethyltyrosyl-N-(2,3-dihydro-1H-inden-2-yl)-D-alaninamide, monohydrochloride [Example 24]”, the IC50 in test [1] (setting [2]) stood at 860 nM. In addition, in the test with mice, the “Writhing Mouse Oral” value was “Inactive” and the “Writhing Mouse Subc.” value is “Lethal”.

Take “2,6-dimethyltyrosyl-N-(6-methoxy-6-oxohexyl)-D-alaninamide, monohydrochloride [Example 5]”: the half-inhibitory concentration (IC50) in test [1] (setting [3]) amounted to 10000 nM. The “Writhing Mouse Subc.” value in the test on mice is “Inactive”.

On to “2,6-dimethyltyrosyl-N-(6-methoxy-6-oxohexyl)-D-alaninamide, monohydrochloride [Example 7]”, for which, in test [1] (setting [3]), the concentration for half-maximal inhibition (IC50) is 1000 nM. In the test on mice, the “Writhing Mouse Oral” value is reported as “Inactive” and the “Writhing Mouse Subc.” value is recorded as “Inactive”.

Turning to “2,6-dimethyltyrosyl-N-[3-(2-thienyl)propyl]-D-alaninamide, monohydrochloride [Example 46]”, in test [1] (setting [3]), the half-maximal inhibitory concentration (IC50) stood at 220 nM. In the test on mice (monohydrochloride, 10 mg/kg), the “Writhing Mouse Oral” value is “Inactive” and the “Writhing Mouse Subc.” value was “Inactive”.

“2,6-dimethyltyrosyl-N-[3-(2-thienyl)propyl]-D-alaninamide, monohydrochloride [Example 47]”: in test [1] (setting [3]), the half-maximal inhibitory concentration (IC50) came out at 2.9 nM. Besides, in the test with mice (monohydrochloride, 10 mg/kg), the “Writhing Mouse Oral” value is recorded as “Active” and the “Writhing Mouse Subc.” value was “Active”.

On to “2,6-dimethyltyrosyl-N-[3-(3-thienyl)-2E-propenyl]-D-alaninamide, monohydrochloride [Example 58]”, for which the IC50 in test [1] (setting [2]) was 1 nM. Moreover, in the test with mice, the “Writhing Mouse Oral” value is listed as “Inactive” and the “Writhing Mouse Subc.” value is “Active”.

Regarding “2,6-dimetyltyrosyl-N-[3-(2-thienyl)-2E-propenyl]-D-alaninamide, monohydrochloride [Example 52]”, in the test with mice, the “Writhing Mouse Oral” value was “Inactive” and the “Writhing Mouse Subc.” value is reported as “Active”.

“2-(2R-amino-1-oxopropyl)-1,2,3,4-tetrahydroisoquinoline, monohydrochloride [Example 32]”: the “Opiate Binding, IC50” value in test [1] (setting [2]) is recorded as “Inactive”. Besides, in the test with mice, the “Writhing Mouse Oral” value is on record as “Active” and the “Writhing Mouse Subc.” value was “Inactive”.

In the case of `Cc1cc(O)cc(C)c1CC(NC(=O)OC(C)(C)C)C(=O)N[C@H](C)C(=O)NCCSc1ccccc1` (mixture of isomers) [Example 108, N-[(1,1-dimethylethoxy)carbonyl]-2,6-dimethyl-DL-tyrosyl-N-[2-(phenythio)ethyl]-D-alaninamide], the 50% inhibitory concentration (IC50) in test [1] was 8.2 nM. Moreover, in the test on mice, the “Writhing Mouse Oral” value is given as “Inactive” and the “Writhing Mouse Subc.” value is “Active”.

Take `Cc1cc(O)cc(C)c1CC(NC(=O)OC(C)(C)C)C(=O)N[C@H](C)C(=O)NCCOc1ccccc1` (mixture of isomers) [Example 115, N-[(1,1-dimethylethoxy)carbonyl]O2,6-dimethyl-DL-tyrosyl-N-(2-phenoxyethyl)-D-alaninamide]: in test [1], the half-maximal inhibitory concentration (IC50) is 8.7 nM. Besides, in the test with mice, the “Writhing Mouse Oral” value is recorded as “Active” and the “Writhing Mouse Subc.” value is “Active”.

Take `Cc1cc(O)cc(C)c1C[C@H](N)C(=O)N[C@@H](C)C(=O)N1CCCc2ccccc21.Cl` (relative stereo) [Example 29, αS-R*-amino-4-hydroxy-2,6-dimethyl-N-[1S*-methyl-2-oxo-2-(1,2,3,4-tetrahydro-1-quinolinyl)ethyl]benzenepropanamide, monohydrochloride]: in test [1], the IC50 was found to be 4900 nM. Further, in the test on mice, the “Writhing Mouse Oral” value is on record as “Inactive” and the “Writhing Mouse Subc.” value is “Inactive”.

As to `Cc1cc(O)cc(C)c1C[C@H](N)C(=O)N[C@H](C)C(=O)N1CCc2ccccc2C1.Cl` (single isomer, unassigned) [Example 35, α-amino-4-hydroxy-2,6-dimethyl-N-[1R-methyl-2-oxo-2-(1,2,3,4-tetrahydro-2-isoquinolinyl)ethyl]benzenepropanamide, monohyrochloride], in test [1] (setting [2]), the IC50 was found to be 14 nM. In the test on mice, the “Writhing Mouse Oral” value is listed as “Active” and the “Writhing Mouse Subc.” value is “Active”.

With `C[C@@H](NC(=O)OCc1ccccc1)C(=O)NC1Cc2ccccc2C1` [Example 20, phenylmethyl [2-[(2,3-dihydro-1H-inden-2-yl)amino]-1R-methyl-2-oxoethyl]carbamate], in test [1] (setting [2]), the “Opiate Binding, IC50” value is “Inactive”. Further, in the test on mice, the “Writhing Mouse Oral” value is “Inactive” and the “Writhing Mouse Subc.” value was “Active”.

For `C[C@@H](N)C(=O)NC1Cc2ccccc2C1` [Example 21], the “Opiate Binding, IC50” value in test [1] was “Inactive”. Moreover, in the test on mice, the “Writhing Mouse Oral” value is reported as “Inactive” and the “Writhing Mouse Subc.” value is “Active”.

On to `C[C@@H](NC(=O)OCc1ccccc1)C(=O)N1CCCc2ccccc21` [Example 25, phenylmethyl [1R-methyl-2-oxo-2-(1,2,3,4-tetrahydro-1-quinolinyl)ethyl]carbamate], for which, in test [1] (setting [2]), the IC50 turned out to be 80000 nM. In the test on mice, the “Writhing Mouse Oral” value is on record as “Inactive” and the “Writhing Mouse Subc.” value is “Inactive”.

Turning to `C[C@@H](N)C(=O)NCCCc1cccs1` [Example 44, 2R-amino-N-[3-(2-thienyl)propyl]propanamide], the “Opiate Binding, IC50” value in test [1] (setting [2]) is on record as “Inactive”. In the test with mice, the “Writhing Mouse Oral” value is recorded as “Active” and the “Writhing Mouse Subc.” value was “Active”.

For the molecule `COc1ccc(CCCNC(=O)[C@@H](C)N)cc1` [Example 60, αR-amino-N-[3-(4-methoxyphenyl)propyl]propanamide], the IC50 in test [1] (setting [2]) worked out at 36000 nM. Besides, in the test on mice, the “Writhing Mouse Oral” value is “Active” and the “Writhing Mouse Subc.” value is “Active”.

On to `Cc1cc(O)cc(C)c1C[C@H](N)C(=O)N[C@H](C)C(=O)NCCC(c1ccccc1)c1ccccc1.Cl` [Example 73, 2,6-dimethyltyrosyl-N-(3,3-diphenylpropyl)-D-alaninamide, monohydrochloride], for which the IC50 in test [1] (setting [2]) worked out at 0.3 nM. For the same molecule, in the test on mice, the “Writhing Mouse Oral” value was “Inactive” and the “Writhing Mouse Subc.” value was “Active”.

For `Cc1cc(O)cc(C)c1C[C@H](N)C(=O)N[C@H](C)C(=O)NCCSc1ccccc1.Cl` [Example 109, 2,6-dimethyltyrosyl-N-[2-(2-(phenylthio)ethyl]-D-alaninamide, monohydrochloride], in test [1], the IC50 is 0.4 nM.

`Cc1cc(O)cc(C)c1C[C@H](N)C(=O)N[C@H](C)C(=O)NCCSc1ccccc1.Cl` [Example 109]: in the test on mice, the “Writhing Mouse Oral” value is on record as “Inactive” and the “Writhing Mouse Subc.” value is “Active”.

methionine enkephalin: the “activity in bioassays for opiate activity” value with opiate activity was “highly active”. For the same molecule, in the test on rat, the analgesic activity result is given as “only weak, fleeting analgesic activity”.

Consider “α-amino-4-hydroxy-2,6-dimethyl-N-[1R-methyl-2-oxo-2-(1,2,3,4-tetrahydro-1-quinolinyl)ethyl]benzenepropanamide, monohydrochloride [Example 30]”, for which, in the test with mice, the “Writhing Mouse Oral” value is on record as “Inactive” and the “Writhing Mouse Subc.” value is reported as “Inactive”.

Consider “α-amino-4-hydroxy-2,6-dimethyl-N-[1R-methyl-2-oxo-2-(1,2,3,4-tetrahydro-2-isoquinolinyl)ethyl]benzenepropanamide, monohydrochloride [Example 37]”, for which the IC50 in test [1] (setting [2]) stood at 1400 nM. In the test on mice, the “Writhing Mouse Oral” value is given as “Inactive” and the “Writhing Mouse Subc.” value is listed as “Inactive”.
